Assay [1] deals with IL-6 production from CEPI-17 cells. In words: Inhibition of hyperosmolarity-induced IL-6 production from human corneal epithelial cells in vitro. Type of assay: cell-based. Particulars: Corneal epithelial cell, 1 hour pre-treatment, hypertonic KGM-HC (additional 80 mM NaCl) 6 hours, ELISA, normalized by dsDNA. How it is done:
(§1) Inhibition of Hyperosmolarity-Induced Cytokine Production from Human Corneal Epithelial Cells in vitro.
(§2) The ocular tear film in dry eye is abnormally hyperosmolar, which is irritating to ocular surface cells. Treatment of human conjunctival epithelial cells with a hypertonic media elicits the production of pro-inflammatory cytokines. A selective JNK inhibitor, anthra[1,9-cd]pyrazol-6(2H)-one, was evaluated for inhibition of hyperosmolarity-induced cytokine secretion from the transformed human corneal epithelial cell line, CEPI-17.CEPI-17 cells were grown in complete isotonic Keratinocyte Growth Medium (iso KGM) and plated in 48-well plates in iso KGM without hydrocortisone (iso KGM-HC). When the cells reached confluence, they were pre-treated for 1 hour with the compound at the indicated concentration in iso KGM-HC. The cells were then stimulated by hypertonic KGM-HC for 6 hours (additional 80 mM NaCl added in iso KGM-HC) in the presence of the compound. Aliquots of the supernatants were assayed for IL-6,IL-8 by ELISA. Cytokine release was normalized by the amount of double stranded DNA (dsDNA) extracted from the cells. Percent inhibition of cytokine production was calculated by comparison with cytokine levels in vehicle-treated cells.
Background: In an ELISA, binding on a coated surface is turned into a signal by an enzyme label.

Assay [2] relates to IL-8 production from CEPI-17 cells. In words: Inhibition of hyperosmolarity-induced IL-8 production from human corneal epithelial cells in vitro. Type of assay: cell-based. Particulars: Corneal epithelial cell, 1 hour pre-treatment, hypertonic KGM-HC (additional 80 mM NaCl) 6 hours, ELISA, normalized by dsDNA. As to the method:
as §1, §2

From patent US7026296B2, “Methods of treating dry eye disorders” (Alcon, Inc., priority 2002, dated 2006) come the findings set out here.

On to `O=C1c2ccccc2-c2n[nH]c3cccc1c23` [SP-600125, anthra[1,9-cd]pyrazol-6(2H)-one], for which the IC50 – broadly, the midpoint of a concentration-inhibition curve – was 12.6 µM in assay [1] and 3.7 µM in assay [2].
